According to patent publication US20250296953A1, “3,4-THIAZOLO-STEROIDS AND METHODS OF MAKING AND USING THE SAME” (Arkansas State University - Jonesboro, priority 2018, published 2025):
Where two headings read alike, the source gives them in different places.

Test system: 60 different human tumor cell lines
Conditions: five dose; for CC50: read-out: LC50
[1] = MDA-MB-231/ATCC (Breast Cancer)
[2] = NCI-H23 (Non-small Cell Lung Cancer)
[3] = NCI-H226 (Non-small Cell Lung Cancer)
[4] = NCI-H322M (Non-small Cell Lung Cancer)
[5] = NCI-H460 (Non-small Cell Lung Cancer)
[6] = NCI-H522 (Non-small Cell Lung Cancer)

Molecule `C[C@]12CCc3nc(N)sc3C1=CC[C@@H]1[C@@H]2CC[C@]2(C)C(=NNC(N)=O)CC[C@@H]12` [IVb.1] has a TGI (MCF7 (Breast Cancer)) of 3.14E−6, a GI50 [1] of 1.7 µM and a TGI [1] of 3.43E−6. For the same molecule, the GI50 (MDA-MB-435 (Melanoma)) was 1.33 µM, the TGI (MDA-MB-435 (Melanoma)) was 2.70E−6 and the GI50 (MDA-MB-468 (Breast Cancer)) was 1.6 µM. For the same molecule, the TGI (MDA-MB-468 (Breast Cancer)) was 3.17E−6, the GI50 (MOLT-4 (Leukemia)) was 2.64 µM and the TGI (MOLT-4 (Leukemia)) was 7.02E−6. For the same molecule, the GI50 [2] was 1.78 µM, the TGI [2] was 3.32E−6 and the GI50 [3] was 2.09 µM. For the same molecule, the TGI [3] was 4.91E6, the GI50 [4] was 1.77 µM and the TGI [4] was 3.55E−6. It also gave a GI50 [5] of 1.92 µM, a TGI [5] of 3.61E−6 and a GI50 [6] of 1.93 µM. It also gave a TGI [6] of 4.06E−6, a GI50 (NCI/ADR-RES (Ovarian Cancer)) of 1.94 µM and a TGI (NCI/ADR-RES (Ovarian Cancer)) of 3.87E−6. For the same molecule, the GI50 (OVCAR-3 (Ovarian Cancer)) was 1.87 µM, the TGI (OVCAR-3 (Ovarian Cancer)) was 3.44E−6 and the GI50 (OVCAR-4 (Ovarian Cancer)) was 1.74 µM. For the same molecule, the TGI (OVCAR-4 (Ovarian Cancer)) was 3.17E−6, the GI50 (OVCAR-5 (Ovarian Cancer)) was 1.71 µM and the GI50 (OVCAR-8 (Ovarian Cancer)) was 1.85 µM. For the same molecule, the TGI (OVCAR-8 (Ovarian Cancer)) was 3.63E−6, the GI50 (PC-3 (Prostate Cancer)) was 1.25 µM and the TGI (PC-3 (Prostate Cancer)) was 2.75E−6. The GI50 (RXF 393 (Renal Cancer)) was 1.61 µM, the TGI (RXF 393 (Renal Cancer)) was 3.23E−6 and the GI50 (SF-268 (CNS Cancer)) was 1.78 µM. The TGI (SF-268 (CNS Cancer)) was 4.11E−6, the GI50 (SK-MEL-2 (Melanoma)) was 1.98 µM and the TGI (SK-MEL-2 (Melanoma)) was 4.58E−6. For the same molecule, the GI50 (SK-MEL-5 (Melanoma)) was 1.57 µM, the TGI (SK-MEL-5 (Melanoma)) was 2.97E−6 and the GI50 (SK-MEL-28 (Melanoma)) was 1.63 µM. It also gave a TGI (SK-MEL-28 (Melanoma)) of 3.10E−6, a GI50 (SK-OV-3 (Ovarian Cancer)) of 6.21 µM and a TGI (SK-OV-3 (Ovarian Cancer)) of 2.23E−6. It also gave a GI50 (SN12C (Renal Cancer)) of 1.89 µM, a TGI (SN12C (Renal Cancer)) of 3.45E−6 and a GI50 (SNB-19 (CNS Cancer)) of 1.87 µM. The TGI (SNB-19 (CNS Cancer)) was 3.62E−6, the GI50 (SNB-75 (CNS Cancer)) was 1.58 µM and the TGI (SNB-75 (CNS Cancer)) was 3.50E−6. The GI50 (SW-620 (Colon Cancer)) was 1.69 µM, the TGI (SW-620 (Colon Cancer)) was 3.39E−6 and the GI50 (T-47D (Breast Cancer)) was 1.86 µM. It also gave a TGI (T-47D (Breast Cancer)) of 3.80E−6, a GI50 (TK-10 (Renal Cancer)) of 2.29 µM and a TGI (TK-10 (Renal Cancer)) of 5.45E−6. It also gave a GI50 (U251 (CNS Cancer)) of 1.77 µM, a TGI (U251 (CNS Cancer)) of 3.22E−6 and a GI50 (UACC-62 (Melanoma)) of 1.63 µM. The TGI (UACC-62 (Melanoma)) was 3.13E−6, the GI50 (UACC-257 (Melanoma)) was 2.4 µM and the TGI (UACC-257 (Melanoma)) was 5.83E−6. It also gave a GI50 (UO-31 (Renal Cancer)) of 1.52 µM, a TGI (UO-31 (Renal Cancer)) of 2.88E−6 and a CC50 (786-0 (Renal Cancer)) of 5.96 µM. It also gave a CC50 (A498 (Renal Cancer)) of 27.8 µM, a CC50 (A549/ATCC (Non-small Cell Lung Cancer)) of 7.51 µM and a CC50 (ACHN (Renal Cancer)) of 5.68 µM. For the same molecule, the CC50 (BT-549 (Breast Cancer)) was 88.5 µM, the CC50 (CAKI-1 (Renal Cancer)) was 7.49 µM and the CC50 (CCRF-CEM (Leukemia)) was > 100 µM. The CC50 (COLO 205 (Colon Cancer)) was 9.25 µM, the CC50 (DU-145 (Prostate Cancer)) was 6.66 µM and the CC50 (EKVX (Non-small Cell Lung Cancer)) was 7.32 µM. The CC50 (HCC-2998 (Colon Cancer)) was 6.15 µM, the CC50 (HCT-15 (Colon Cancer)) was 5.6 µM and the CC50 (HCT-116 (Colon Cancer)) was 9.07 µM. The CC50 (HL-60(TB) (Leukemia)) was > 100 µM, the CC50 (HOP-62 (Non-small Cell Lung Cancer)) was 6.54 µM and the CC50 (HOP-92 (Non-small Cell Lung Cancer)) was 6.6 µM. The CC50 (HT29 (Colon Cancer)) was 7.41 µM, the CC50 (IGROV1 (Ovarian Cancer)) was 6.63 µM and the CC50 (K-562 (Leukemia)) was 40.4 µM. It also gave a CC50 (KM12 (Colon Cancer)) of 6.79 µM, a CC50 (LOX IMVI (Melanoma)) of 5.72 µM and a CC50 (M14 (Melanoma)) of 7.31 µM. It also gave a CC50 (MALME-3M (Melanoma)) of 6.9 µM, a CC50 (MCF7 (Breast Cancer)) of 6.5 µM and a CC50 [1] of 6.9 µM. For the same molecule, the CC50 (MDA-MB-435 (Melanoma)) was 5.49 µM, the CC50 (MDA-MB-468 (Breast Cancer)) was 6.3 µM and the CC50 (MOLT-4 (Leukemia)) was 93.3 µM. The CC50 [2] was 6.21 µM, the CC50 [3] was 17.4 µM and the CC50 [5] was 6.79 µM. For the same molecule, the CC50 [6] was 8.55 µM, the CC50 (NCI/ADR-RES (Ovarian Cancer)) was 7.71 µM and the CC50 (OVCAR-3 (Ovarian Cancer)) was 6.34 µM. For the same molecule, the CC50 (OVCAR-4 (Ovarian Cancer)) was 5.78 µM, the CC50 (OVCAR-5 (Ovarian Cancer)) was 5.96 µM and the CC50 (OVCAR-8 (Ovarian Cancer)) was 7.11 µM. The CC50 (PC-3 (Prostate Cancer)) was 6.01 µM, the CC50 (RXF 393 (Renal Cancer)) was 6.48 µM and the CC50 (SF-268 (CNS Cancer)) was 9.48 µM. For the same molecule, the CC50 (SK-MEL-2 (Melanoma)) was 12.4 µM, the CC50 (SK-MEL-5 (Melanoma)) was 5.61 µM and the CC50 (SK-MEL-28 (Melanoma)) was 5.88 µM. It also gave a CC50 (SK-OV-3 (Ovarian Cancer)) of 66.7 µM, a CC50 (SN12C (Renal Cancer)) of 6.33 µM and a CC50 (SNB-19 (CNS Cancer)) of 7.01 µM. For the same molecule, the CC50 (SNB-75 (CNS Cancer)) was 7.76 µM, the CC50 (SW-620 (Colon Cancer)) was 8.55 µM and the CC50 (T-47D (Breast Cancer)) was 7.77 µM. The CC50 (TK-10 (Renal Cancer)) was 19.3 µM, the CC50 (U251 (CNS Cancer)) was 5.86 µM and the CC50 (UACC-62 (Melanoma)) was 5.98 µM. The CC50 (UACC-257 (Melanoma)) was 25.7 µM and the CC50 (UO-31 (Renal Cancer)) was 5.44 µM.
